Test results as given in patent US8501981B2, “CXCR2 inhibitors” (SANOFI, priority 2006, dated 2013).

These compounds were tested against human CXCR2 (Homo sapiens (Human), UniProt P25025) (assay: Determination of CXCR2 inhibition: Calcium Fluorescence Assay (FLIPR)). Conditions: chemokine IL-8; CHO-K1 cells stably transfected with human CXCR2 and Gα16.
human CXCR2, sequence (P25025 whole entry): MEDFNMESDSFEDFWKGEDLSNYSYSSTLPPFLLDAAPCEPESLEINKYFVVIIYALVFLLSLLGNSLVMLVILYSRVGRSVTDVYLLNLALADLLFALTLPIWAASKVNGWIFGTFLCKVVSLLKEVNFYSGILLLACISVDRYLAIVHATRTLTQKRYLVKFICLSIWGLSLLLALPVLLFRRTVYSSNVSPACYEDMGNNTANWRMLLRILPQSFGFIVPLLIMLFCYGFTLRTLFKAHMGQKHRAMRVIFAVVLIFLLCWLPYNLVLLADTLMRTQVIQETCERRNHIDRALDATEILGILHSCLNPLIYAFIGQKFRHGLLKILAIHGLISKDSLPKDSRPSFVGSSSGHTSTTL
Assay type: cell-based
Source text: Determination of CXCR2 inhibition: Calcium Fluorescence Assay (FLIPR)
The assay is based on the detection of intracellular calcium changes detected by the selective, calcium-chelating dye, Fluo-4 (Molecular Probes). A large fluorescence intensity increase is observed upon calcium association with Fluo-4. […] By co-expressing the CXCR2 receptor and the promiscuous Gα16 protein, activation of this chemokine receptor is directed into this phospholipase C cascade resulting in intracellular calcium mobilization.
The CHO—K1 cells stably transfected with human CXCR2 and the promiscuous Gα16 protein were maintained in a log phase of growth at 37° C. and 5% CO2 in the following media: Iscove's, 10% FBS, 1× Penicillin-Streptomycin, 400 μg/mL g418 and 350 μg/mL Zeocin. Approximately 24-48 hours prior to the assay, 20,000-30,000 cells/well were plated onto a 96-well black/clear bottomed assay plate (Becton Dickinson) with a well volume of 180 μl. For dye-loading the culture medium was carefully removed and replaced by 100 μl/well dye solution (4 μM Fluo-4 in 135 mM NaCl, 5 mM KCl, 1 mM magnesium sulphate, 5 mM glucose, 20 mM hepes, 2.5 mM probenecid; pH 7.4). Cells were incubated for 1 h at 37° C., and then washed 3× with buffer. After washing 90 μl buffer/well were left. Increasing concentrations of compound was added in 45 μl buffer (4× concentrated) followed by 10 min incubation at 37° C. Then the chemokine (10-100 nM) was applied in 45 μl buffer (4× concentrated) and the measurement performed for 2 min. The IC50 value of a compound was determined by calculation of % inhibition of total calcium response to the chemokine.
`CCCCC(CC)(NC(=O)c1ccc2ccccc2c1OCCOc1ccccc1)C(=O)O` (centres unmarked) [Example 117, 2-Ethyl-2-{[1-(2-phenoxy-ethoxy)-naphthalene-2-carbonyl]-amino}-hexanoic acid] was tested, and the IC50 was less than 10 µM.
For `CC(C)(NC(=O)c1ccc2ccccc2c1OCCc1ccccc1)C(=O)O` [Example 126, 2-Methyl-2-[(1-phenethyloxy-naphthalene-2-carbonyl)-amino]-propionic acid], the IC50 was less than 10 µM.
In the case of `CC(C)(NC(=O)c1ccc2ccccc2c1OCCCc1ccc(Cl)cc1)C(=O)O` [Example 106, 2-({1-[3-(4-Chloro-phenyl)-propoxy]-naphthalene-2-carbonyl}-amino)-2-methyl-propionic acid], the IC50 is reported as less than 10 µM.
With `CC(C)(NC(=O)c1ccc2ccccc2c1C#CCCCc1ccccc1)C(=O)O` [Example 166, 2-Methyl-2-{[1-(5-phenyl-pent-1-ynyl)-naphthalene-2-carbonyl]-amino}-propionic acid] the IC50 was 1.67 µM.
`O=C(NC1(C(=O)O)CCC1)c1ccc2ccccc2c1OCCOc1ccccc1` [Example 100] gave an IC50 of less than 10 µM.
With `O=C(NC1(C(=O)O)CCC1)c1ccc2ccccc2c1OCCOc1ccc(F)cc1` [Example 105, 1-({1-[2-(4-Fluoro-phenoxy)-ethoxy]-naphthalene-2-carbonyl}-amino)-cyclobutanecarboxylic acid] the IC50 was 3.23 µM.
Work on `O=C(NC1(C(=O)O)CCC1)c1ccc2ccccc2c1OCCCc1ccccc1` [Example 99, 1-{[1-(3-Phenyl-propoxy)-naphthalene-2-carbonyl]-amino}-cyclobutanecarboxylic acid] yielded an IC50 of less than 10 µM.
For `O=C(NC1(C(=O)O)CCC1)c1ccc2ccccc2c1OCCC1CCCCC1` [Example 97, 1-{[1-(2-Cyclohexyl-ethoxy)-naphthalene-2-carbonyl]-amino}-cyclobutanecarboxylic acid], the IC50 was less than 10 µM.
`CC(C)(NC(=O)c1ccc2ccccc2c1C#CCOc1ccccc1)C(=O)O` [Example 165, 2-Methyl-2-{[1-(3-phenoxy-prop-1-ynyl)-naphthalene-2-carbonyl]-amino}-propionic acid] was tested, and the IC50 was less than 10 µM.
`CC(CCc1ccccc1)Oc1c(C(=O)NC2(C(=O)O)CCCC2)ccc2ccccc12` (centres unmarked) [Example 52, 1-{[1-(1-Methyl-3-phenyl-propoxy)-naphthalene-2-carbonyl]-amino}-cyclopentanecarboxylic acid] gave an IC50 of 0.92 µM.
Compound `CCCCC(CC)(NC(=O)c1ccc2ccccc2c1OCCCc1ccccc1)C(=O)O` (centres unmarked) [Example 116, 2-Ethyl-2-{[1-(3-phenyl-propoxy)-naphthalene-2-carbonyl]-amino}-hexanoic acid] has an IC50 of less than 10 µM.
`CC(C)(NC(=O)c1sc2ccccc2c1OCCOc1ccccc1)C(=O)O` [Example 46, 2-Methyl-2-{[3-(2-phenoxy-ethoxy)-benzo[b]thiophene-2-carbonyl]-amino}-propionic acid] gave an IC50 of 1.76 µM.
With `C[C@@H](NC(=O)c1ccc2ccccc2c1OCCc1ccc(F)cc1)C(=O)O` [Example 130, (R)-2-({1-[2-(4-Fluoro-phenyl)-ethoxy]-naphthalene-2-carbonyl}-amino)-propionic acid] the IC50 was less than 10 µM.
For `CC(C)(NC(=O)c1cc(F)c2ccccc2c1OCCOc1ccccc1)C(=O)O` [Example 20, 2-{[4-Fluoro-1-(2-phenoxy-ethoxy)-naphthalene-2-carbonyl]-amino}-2-methyl-propionic acid], the IC50 was less than 10 µM.
Work on `CCCCC(CC)(NC(=O)c1ccc2ccccc2c1OCCCC1CCCCC1)C(=O)O` (centres unmarked) [Example 119, 2-{[1-(3-Cyclohexyl-propoxy)-naphthalene-2-carbonyl]-amino}-2-ethyl-hexanoic acid] yielded an IC50 of less than 10 µM.
`CC(CCc1ccccc1)Oc1c(C(=O)NC(C)(C)C(=O)O)ccc2ccccc12` (centres unmarked) [Example 140, 2-Methyl-2-{[1-(1-methyl-3-phenyl-propoxy)-naphthalene-2-carbonyl]-amino}-propionic acid] was tested, and the IC50 was less than 10 µM.
For `CC(C)(NC(=O)c1cc(F)c2ccccc2c1OCCCc1ccccc1)C(=O)O` [Example 18, 2-{[4-Fluoro-1-(3-phenyl-propoxy)-naphthalene-2-carbonyl]-amino}-2-methyl-propionic acid], the IC50 was less than 10 µM.
For `CC(C)CC(C)(NC(=O)c1ccc2ccccc2c1OCCOc1ccccc1)C(=O)O` (centres unmarked) [Example 55, 2,4-Dimethyl-2-{[1-(2-phenoxy-ethoxy)-naphthalene-2-carbonyl]-amino}-pentanoic acid], the IC50 was 2.56 µM.
With `CC(C)(NC(=O)c1cc(F)c2ccccc2c1OCCc1ccccc1)C(=O)O` [Example 17, 2-[(4-Fluoro-1-phenethyloxy-naphthalene-2-carbonyl)-amino]-2-methyl-propionic acid] the IC50 was less than 10 µM.
In the case of `CC(C)(NC(=O)c1ccc2ccccc2c1OCCOc1ccc(F)c(Cl)c1)C(=O)O` [Example 73, 2-({1-[2-(3-Chloro-4-fluoro-phenoxy)-ethoxy]-naphthalene-2-carbonyl}-amino)-2-methyl-propionic acid], the IC50 is reported as 1.25 µM.
